In a melting point compilation (Tetko et al.; mined from patent text by program, amines drawn as free bases though some values may be those of a salt):

| melting point | SMILES |
| --- | --- |
| 200 to 202 °C | CCOCc1nc2c(N)nc(C)c(C)c2n1CCCCS(N)(=O)=O |
| 150 to 151 °C | CCOC(=O)c1cc(OC)c2c(C)c(CCN(CC)CC)c(=O)oc2c1Br |
| 84 to 89 °C | CC(C)NCC(O)c1cc(CO)cc(OCc2ccccc2)c1 (stereo not given) |
| 121 to 123 °C | COC(=O)c1sc2cc(CO)ccc2c1C |
| 150 to 154 °C | CC1(C)CCN(c2ccc(-c3nc(C(=O)Nc4nccs4)c(-c4ccc(Cl)cc4)[nH]3)cc2)CC1 |
| 258 °C | CC(C)Cn1c(=O)n(C)c(=O)c2c(Br)c(C(=O)c3nc4ccccc4n3C)sc21 |
| 101 to 103 °C | CC(=O)Oc1nc(-c2ccccc2)sc1-c1ccccc1 |
| 193 to 194 °C | COc1ccc(C(=O)N2CCc3cc(S(=O)(=O)N4CCN(c5cccc(Cl)c5)CC4)ccc32)cc1 |
| 160 to 161 °C | Nc1ccc(S(=O)(=O)Nc2ccc(C(O)(C(F)(F)F)C(F)(F)F)cc2)cc1 |
| 130 to 131 °C | COc1cc(C)c(NS(=O)(=O)N(C)C)cc1C(=O)NCC1CCCO1 (stereo not given) |
| 70 °C | c1ccc(C2CN3CCN=C3S2)nc1 (stereo not given) |
| 120 to 121 °C | CCOC(=O)Cc1sc(Sc2cc(C(=O)OCC)nc3c(OC)cccc23)nc1C |
| 129 to 130 °C | COc1cc(C(C)C)c(NC(=O)CN2CCN(CCCSc3nc4ccccc4o3)CC2)c(C(C)C)c1 |
| > 270 °C | NS(=O)(=O)c1cc2c(s1)SCCNC2=O |
| 221 °C | O=c1cc(-c2ccccc2)oc2c(CN3CCC(O)CC3)c(O)c(O)c(O)c12 |
| 162 °C | Cc1oc(-c2ccccc2)nc1Cc1cc2cc(N)ccc2o1 |
| 119 to 121 °C | CCCc1cc(CCC)c2oc(C(=O)c3ccc(OC)cc3)c(C)c2c1O |
| 195 to 197 °C | CC(C)(C)c1cc(CCc2ccc(NC(=O)NC3CCN(Cc4ccccc4)CC3)cc2)cc(C(C)(C)C)c1O |
| 218 to 221 °C | CC(=O)C1CNCc2c1[nH]c1cnc3ccccc3c21 (stereo not given) |

| melting point | SMILES |
| --- | --- |
| > 350 °C | O=c1[nH]c2cc(Cl)ccc2c(O)c1-c1ccccc1F |
| 124 to 126 °C | COc1cc(C(=O)O)c2c(c1OC)OC(C1CC1)C=C2 (stereo not given) |
| 180 to 182 °C | Cc1c(=O)n(Cc2ccccc2)c(=O)n2cc(C(=O)NCc3ccc(Cl)c(Cl)c3)sc12 |
| 170 to 171 °C | CCOCc1nc2c(N)nc3c(c2n1CCCCS(C)(=O)=O)CCCC3 |
| 86 °C | COC(C=Cc1ccccc1)=C1C(=O)C=C(C)C1=O |
| 169 to 172 °C | O=C1C(CBr)=C(CBr)C(=O)C(CBr)=C1CBr |
| > 400 °C | O=C1N=NC(=O)c2c1[nH]c1cc(Br)cc(Br)c21 |
| 82 to 84 °C | O=C(OCc1ccccc1)C(C(=O)OCc1ccccc1)c1ncc(C(F)(F)F)cc1[N+](=O)[O-] |
| 139 to 140 °C | O=C1NC(=O)C(c2ccc(Br)s2)O1 (stereo not given) |
| 103 °C | COc1ccccc1Sc1c(Cl)ncnc1Cl |
| 146 to 148 °C | Cn1nnnc1SCC1=NCCc2cc(OCc3ccccc3)c(OCc3ccccc3)cc21 |
| 211 to 212 °C | O=C(Cn1c(-c2ccc(Cl)cc2)nc2cccnc21)c1ccccc1 |
| 160 °C | CC(C)(C)OC(=O)NC(C(=O)O)C1=CSCCO1 (stereo not given) |
| 218 to 220 °C | S=c1n(CCc2ccc(-c3nnn[nH]3)cc2)ccn1C1CCc2ccccc2C1 (stereo not given) |
| 205 °C | Cc1cc(C)nc(N2CC=C(N)N2)n1 |
| 209 to 211 °C | COC(=O)C=Cc1ccc(C(=O)Nc2ccncc2)cc1 |
| 140 to 142 °C | Cc1cccc2c1nc(COc1ccc(Cl)cc1)n2CCC(C)C(=O)Cl (stereo not given) |
| 63 to 65 °C | CC(=O)N(C(C)=O)c1csc(Br)n1 |
| 109 to 111 °C | CN(C)C=Nc1ccc(-n2ncnc2-c2ccccc2)cc1 |

| SMILES | melting point |
| --- | --- |
| COc1ccc2c(C)c(C(=O)C34CC5CC(CC(C5)C3)C4)oc2c1 | 173 to 175 °C |
| CCOC(=O)c1nnc2n1-c1sc(Cl)cc1C(c1ccccc1[N+](=O)[O-])=NC2 | 143 to 145 °C |
